In US8853214B2, “Pyridazine compounds for controlling invertebrate pests” (BASF SE, priority 2010, dated 2014):

Tested on: Aphis craccivora
Experiment: Cowpea aphid (Aphis craccivora) spray test on potted cowpea plants
Type: in vivo
Conditions: in comparison with untreated controls, population reduction assessed after 24, 72 and 120 hours
Experimental: II.1 Cowpea Aphid (Aphis craccivora)
The active compounds were formulated in 50:50 (vol:vol) acetone:water. The test solution was prepared at the day of use.
Potted cowpea plants colonized with 100-150 aphids of various stages were sprayed after the pest population had been recorded. Population reduction was assessed after 24, 72, and 120 hours.

`O=C(Nc1ccnnc1)c1ccco1` [II.31, Furan-2-carboxylic acid pyridazin-4-ylamide] was tested, and the mortality at 500 ppm was ≥ 75%.
